“Also recorded” adds a separate entry of the source. Counter-ions that a name gives are not always drawn.
Experiment: Antagonistic effects on the anesthetic and lethal effects of acetaldehyde in rats
Format: in vivo
Settings: acetaldehyde 1370 mg/kg oral, hydrochloride
Procedure: Rats (body weights 250-280 g) fasted for 18 hours were previously dosed orally with each of test compositions Formula A to Formula G as shown in below. Control group received a corresponding volume of saline by the same route. After a predetermined time (45-60 min ), acetaldehyde (1370 mg/kg) was orally administered to the rats and the effect of Formula A to Formula G on the anesthetic and lethal effects of acetaldehyde was observed.
When 1370 mg/kg of acetaldehyde was administered without prior treatment with the test compositions, the rats (control group) fell into anesthesia within several minutes, and then developed dyspnea and the like and 90% of them died within 1 to 6 hours.
The same experiment as Experimental Example I was carried out with each of test compositions Formula H and I and the results obtained are shown in Table 4.

CC(=C(CCO)SSCC1CCCO1)N(C=O)Cc1cnc(C)nc1N (stereo in doubt) [fursultiamine hydrochloride]
antagonizing effect against anesthetic and lethal effects of acetaldehyde (in words): fully effective at the level of addition of 20 mg/kg; also recorded: more effective than thiamine hydrochloride
